# Laboratory results: patent publication US12421489B2, “Biological control of plant pathogenic microorganisms” (priority 2016, dated 2025)
# Experiments:
# Monilinia fructicola = assay: Cherry inoculation assays 1 and 3: Monilinia fruit rot of ‘Sweet Valentine’ cherries, dip treatment; type: in vivo; settings: Assay 1, cherries, cumulative after 13 days; Nil 50%; reductions not significant
# Method: (§1) Fruit-based screening assays were conducted in laboratories at the Plant and Food Research Ruakura Research Centre, Hamilton, New Zealand (PFR). PFR assays focused on dip treatment application of YBCA5 and fungicide controls.
# (§2) Fruit for Monilinia fructicola and Botrytis spp. inoculation assays were carried out on sweet cherries (Prunus avium ‘Sweet Valentine’) that were picked at the harvest mature stage and sourced from the PFR Clyde Research Orchard in Central Otago on 8 Jan. 2016 for fruit based assays 1 and 2. A second harvest was carried out on 13 Jan. 2016 for fruit based assays 3 and 4.
# (§3) Each cherry was then subjected to a double wash process. Wash one consisted of 10 minutes in tap water on a rotary shaker (110 rpm) followed by a five minute wash in SDW (Wash 2). […]
# A Monilinia fructicola culture (isolate code MFGQ3), which had been originally isolated from an infected peach tree located in the Hamilton region during 1998, was used for the spray inoculation assays included in this section (Ruakura based assay). […] This stock suspension was then filtered using a 70 μm cell strainer (to remove mycelial fragments), the concentration determined using a haemocytometer and then adjusted, by dilution with SDW+Tw 80 (0.05%) to a final concentration of 1×10^4 conidia/mL. […]
# Botrytis spp. = assay: Cherry inoculation assays 2 and 4: Botrytis spp. fruit rot of ‘Sweet Valentine’ cherries, dip treatment; type: in vivo; settings: Assay 2, cherries, cumulative after 13 days; nil 35%; not significantly reduced (P>0.05)
# Method: as §1, §2, §3
# A Botrytis spp. culture (isolate code 09-2), which had been originally isolated from an infected kiwifruit located in the Bay of Plenty region during the 2000s, was used for the spray inoculation assays included in this section carried out on cherries. […] This stock suspension was then filtered using a 70 μm cell strainer (70 μm mesh) to remove mycelial fragments, the concentration determined using a haemocytometer and then adjusted, by dilution with SDW+Tw 80 (0.01% v/v) to a final concentration of 1×10^5 conidia/mL. […]
smiles,measurement,setting,value
CC(C)NC(=O)N1CC(=O)N(c2cc(Cl)cc(Cl)c2)C1=O [iprodione],incidence of Monilinia fruit rot,Monilinia fructicola,22%
same,incidence of Botrytis spp. fruit rot,Botrytis spp.,22%
